IC50 data for 15 compounds are collected here from patent US20180042931A1 (Bayer Pharma Aktiengesellschaft, priority 2015, published 2018).

In test [1] the test system is constitutive active colorectal cancer cell (CRC) Wnt pathway. Kind of test: Cellular reporter assay, HCT116 cells stably transfected with Super TopFlash vector (HCT116-TOP), luciferase readout. The settings on record: Homo sapiens, HCT-116, 36 hours incubation, luciferase expression, average or median values. The format is cell-based. As to the method:
In order to discover and characterize small molecules which inhibit the constitutive active colorectal cancer cell (CRC) Wnt pathway, a cellular reporter assay was employed. The corresponding assay cell was generated by transfection of the colorectal cancer cell line HCT116 (ATCC, #CCL-247) with the Super TopFlash vector (Morin, Science 275, 1997, 1787-1790; Molenaar et al., Cell 86 (3), 1996, 391-399). The HCT116 cell line is cultivated at 37° C. and 5% CO2 in DMEM/F-12 (Life Technologies, #11320-074), supplemented with 2 mM glutamine, 20 mM HEPES, 1.4 mM pyruvate, 0.15% Na-bicarbonate and 10% foetal bovine serum (GIBCO, #10270), this cancer cell line is pathophysiological relevant since it carries a deletion of position S45 in the β-catenin gene, leading to constitutive active Wnt signaling. Stable transfectants were generated by cotransfection with pcDNA3 and selection of stable transfected cells with 1 mg/mL G418.
(§1) In preparation of the assay, the two cell lines were plated 24 hours before at 10000 cells per well of a 384 micro titre plate (MTP) in 30 μL growth medium. Selective inhibitory activity for small molecules on the mutated Wnt pathway was determined after parallel incubation of both (TOP and FOP) HCT116 reporter cell lines with a compound dilution series from 50 μM to 15 nM in steps of 3.16-fold dilutions in CAFTY buffer (130 mM NaCl, 5 mM KCl, 20 mM HEPES, 1 mM MgCl2, 5 mM NaHCO3, pH 7.4) containing 2 mM Ca^2+ and 0.01% BSA. The compounds were thereby serially prediluted in 100% DMSO and thereafter in addition 50 fold into the CAFTY compound dilution buffer (described above). From this dilution 10 μL were added to the cells in 30 μL growth medium and incubated for 36 hours at 37° C. and 5% CO2. Thereafter luciferase assay buffer (1:1 mixture of luciferase substrate buffer (20 mM Tricine, 2.67 mM MgSO4, 0.1 mM EDTA, 4 mM DTT, 270 μM Coenzyme A, 470 μM Luciferin, 530 μM ATP, ph adjusted to pH 7.8 with a sufficient volume of 5M NaOH) and Triton buffer (30 mL Triton X-100, 115 mL glycerol, 308 mg Dithiothreitol, 4.45 g Na2HPO4.2H2O, 3.03 g TRIS HCl, ad 1I H2O, pH 7.8) was added as equal volume to the compound solution on the cells to determine luciferase expression as a measure of Wnt signaling activity in a luminometer.
(In a reporter assay the amount or activity of a reporter protein is the signal.)

For test [2], the system named is FOP control vector (randomized, non-functional sequence instead of functional TCF elements) in HCT116 cells. Nature of the test: Control reporter assay, HCT116 cells stably transfected with FOP control vector (HCT116-FOP), luciferase readout. The settings on record: Homo sapiens, HCT-116, 36 hours incubation, luciferase expression, dilution series up to 50 μM. The class given is cell-based. As to the method: In a parallel approach, HCT116 cells were cotransfected with the FOP control vector and pcDNA3. The FOP vector is identical to the TOP construct, but it contains instead of functional TCF elements a randomized, non-functional sequence. For this transfection a stable transfected cell line was generated as well.
as §1

As a reminder, the IC50 is the point on the concentration scale where inhibition reaches its midpoint. As for `O=C(CN1CCOCC1)Nc1cc(C(=O)Nc2ccc(-c3cccnc3F)cc2)ccc1OC(F)F` [Example 39, 4-(difluoromethoxy)-N-[4-(2-fluoropyridin-3-yl)phenyl]-3-[(morpholin-4-ylacetyl)amino] benzamide], the half-inhibitory concentration (IC50) in test [1] is 5400 nM; in test [2], at least 50 µM.

Regarding `COc1ccc(NC(=O)c2ccc(-c3cnc(N)nc3)cc2)cc1NC(=O)CN1CCOCC1` [Example 37, 4-(2-aminopyrimidin-5-yl)-N-{4-methoxy-3-[(morpholin-4-ylacetyl)amino]phenyl} benzamide], the IC50 in test [1] was 23000 nM; in test [2], at least 50 µM.

As for `Cc1ccc(C(=O)Nc2ccc(-c3cccnc3F)cc2)cc1NC(=O)C1(N2CCOCC2)CC1` [Example 25, N-[4-(2-fluoropyridin-3-yl)phenyl]-4-methyl-3-({[1-(morpholin-4-yl)cyclopropyl]carbonyl}-amino)benzamide], the IC50 in test [1] was 20.7 nM; in test [2] it was at least 50 µM.

On to `Nc1ccc(-c2ccc(NC(=O)c3ccc(OC(F)(F)F)c(NC(=O)C4(N5CCOCC5)CC4)c3)cc2)cn1` [Example 21, N-[4-(6-aminopyridin-3-yl)phenyl]-3-({[1-(morpholin-4-yl)cyclopropyl]carbonyl}amino)-4-(trifluoromethoxy)benzamide], for which the figures for the half-inhibitory concentration (IC50) in test [1] and in test [2] were 4.55 nM and 46.5 µM, respectively.

Take `CN1CCN(CC(=O)Nc2cc(C(=O)Nc3ccc(-c4cccnc4)cc3)ccc2OC(F)(F)F)CC1` [Example 30, 3-{[(4-methylpiperazin-1-yl)acetyl]amino}-N-[4-(pyridin-3-yl)phenyl]-4-(trifluoromethoxy)benzamide]: the figures for the IC50 in test [1] and in test [2] were 31.3 nM and 38.5 µM, respectively.

For `O=C(CN1CCOCC1)Nc1cc(C(=O)Nc2ccc(-c3ccc(CO)nc3)cc2)ccc1OC(F)(F)F` [Example 14, N-{4-[6-(hydroxymethyl)pyridin-3-yl]phenyl}-3-[(morpholin-4-ylacetyl)amino]-4-(trifluoromethoxy)benzamide], the IC50 in test [1] was 377 nM; in test [2], at least 50 µM.

In the case of `COc1ncccc1-c1ccc(NC(=O)c2ccc(OC(F)(F)F)c(NC(=O)CN3CCOCC3)c2)cc1` [Example 17, N-[4-(2-methoxypyridin-3-yl)phenyl]-3-[(morpholin-4-ylacetyl)amino]-4-(trifluoromethoxy)-benzamide], the IC50 in test [1] is 285 nM; in test [2] it was at least 50 µM.

Consider `O=C(Nc1ccc(-c2cccnc2F)cc1)c1ccc(OC(F)(F)F)c(NC(=O)C2(N3CCOCC3)CC2)c1` [Example 20, N-[4-(2-fluoropyridin-3-yl)phenyl]-3-({[1-(morpholin-4-yl)cyclopropyl]carbonyl}amino)-4-(trifluoromethoxy)benzamide], for which the results for the IC50 in test [1] and in test [2] were 3.15 nM and at least 50 µM, respectively.

As for `O=C(Nc1ccc(-c2cccnc2F)cc1)c1ccc(F)c(NC(=O)C2(N3CCOCC3)CC2)c1` [Example 26, 4-fluoro-N-[4-(2-fluoropyridin-3-yl)phenyl]-3-({[1-(morpholin-4-yl)cyclopropyl]carbonyl}-amino)benzamide], the IC50 was 14 nM in test [1] and at least 50 µM in test [2].

On to `O=C(CN1CCOCC1)Nc1cc(C(=O)Nc2ccc(-c3cnc(C(F)(F)F)nc3)cc2)ccc1OC(F)(F)F` [Example 12, 3-[(morpholin-4-ylacetyl)amino]-4-(trifluoromethoxy)-N-{4-[2-(trifluoromethyl)pyrimidin-5-yl]phenyl}benzamide], for which the IC50 in test [1] turned out to be 2660 nM; in test [2], 32 µM.

Regarding `CN1CCN(CC(=O)Nc2cc(C(=O)Nc3ccc(-c4cncnc4)cc3)ccc2OC(F)(F)F)CC1` [Example 32, 3-{[(4-methylpiperazin-1-yl)acetyl]amino}-N-[4-(pyrimidin-5-yl)phenyl]-4-(trifluoromethoxy)benzamide], the figures for the IC50 in test [1] and in test [2] were 47.5 nM and 40 µM, respectively.

Regarding `COc1ccc(NC(=O)c2ccc(-c3cnn(C)c3)cc2)cc1NC(=O)CN1CCOCC1` [Example 36, N-{4-methoxy-3-[(morpholin-4-ylacetyl)amino]phenyl}-4-(1-methyl-1H-pyrazol-4-yl)benzamide], the IC50 in test [1] is 15600 nM; in test [2], at least 50 µM.

Consider `O=C(CN1CCOCC1)Nc1cc(C(=O)Nc2ccc(-c3cncnc3)cc2)ccc1OC(F)(F)F` [Example 8, 3-[(morpholin-4-ylacetyl)amino]-N-[4-(pyrimidin-5-yl)phenyl]-4-(trifluoromethoxy)benzamide], for which the values for the half-maximal inhibitory concentration (IC50) in test [1] and in test [2] were 66.5 nM and at least 50 µM, respectively.

Consider `O=C(CN1CCOCC1)Nc1cc(C(=O)Nc2ccc(-c3cccnc3)cc2)ccc1OC(F)F` [Example 27, 4-(difluoromethoxy)-3-[(morpholin-4-ylacetyl)amino]-N-[4-(pyridin-3-yl)phenyl]benzamide], for which the IC50 in test [1] is 37 nM; in test [2] it was at least 50 µM.

With `Nc1ncc(-c2ccc(NC(=O)c3ccc(OC(F)F)c(NC(=O)CN4CCOCC4)c3)cc2)cn1` [Example 28, N-[4-(2-aminopyrimidin-5-yl)phenyl]-4-(difluoromethoxy)-3-[(morpholin-4-ylacetyl)amino]benzamide], the half-inhibitory concentration (IC50) in test [1] was determined as 226 nM; in test [2], 39 µM.
